# Several values for one entry are separate records, joined by “and”; a condition that tells them apart may be missing. Equal values may be shown once. Inconclusive results and toxic doses are left out.
# Tested on: L1210 leukemia ip in BDF1 mice, survival T/C
# Assay: NCI In Vivo Anticancer Drug Screen. Data for tumor model L1210 Leukemia (intraperitoneal) in B6D2F1 (BDF1) mice
# Conditions: higher = longer survival
# In short: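 Each compound was tested against a transplantable tumor grown in mice. The endpoint was survival, with treated animals benchmarked against vehicle controls as a simple ratio.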
# [1] = endpoint: mean survival time, dose: 200.0 mg/kg/injection, schedule: Q01DX001 (ip), vehicle: carboxymethylcellulose (CMC)
# [2] = endpoint: mean survival time, dose: 50.0 mg/kg/injection, schedule: Q01DX009 (ip), vehicle: saline with Tween-80
# [3] = endpoint: mean survival time, dose: 100.0 mg/kg/injection, schedule: Q01DX009 (ip), vehicle: saline with Tween-80
# [4] = endpoint: mean survival time, dose: 100.0 mg/kg/injection, schedule: Q04DX003 (ip), vehicle: saline with Tween-80
# [5] = endpoint: mean survival time, dose: 200.0 mg/kg/injection, schedule: Q01DX009 (ip), vehicle: saline with Tween-80
# [6] = endpoint: mean survival time, dose: 100.0 mg/kg/injection, schedule: Q04DX002 (ip), vehicle: saline with Tween-80
# [7] = endpoint: mean survival time, dose: 200.0 mg/kg/injection, schedule: Q04DX002 (ip), vehicle: saline with Tween-80
# [8] = endpoint: mean survival time, dose: 400.0 mg/kg/injection, schedule: Q04DX002 (ip), vehicle: saline with Tween-80
# [9] = endpoint: mean survival time, dose: 100.0 mg/kg/injection, schedule: Q01DX009 (ip), vehicle: Klucel (hydroxypropylcellulose) (HPC)
# [10] = endpoint: mean survival time, dose: 100.0 mg/kg/injection, schedule: Q04DX003 (ip), vehicle: saline
# [11] = endpoint: mean survival time, dose: 200.0 mg/kg/injection, schedule: Q04DX003 (ip), vehicle: saline
smiles,measurement,setting,value
CC(=O)Nc1ccccc1Sc1ccc(Br)cc1[N+](=O)[O-],T/C,"endpoint: mean survival time, dose: 75.0 mg/kg/injection, schedule: Q04DX003 (ip), vehicle: saline",91 % of control
same,T/C,"endpoint: mean survival time, dose: 150.0 mg/kg/injection, schedule: Q04DX003 (ip), vehicle: saline",90 % of control
same,T/C,"endpoint: mean survival time, dose: 300.0 mg/kg/injection, schedule: Q04DX003 (ip), vehicle: saline",87 % of control
CC1(C)N=C(N)N=C(N)N1NC(=O)c1ccc(F)cc1,T/C,"endpoint: mean survival time, dose: 100.0 mg/kg/injection, schedule: Q01DX009 (ip), vehicle: saline",102 % of control
same,T/C,"endpoint: mean survival time, dose: 200.0 mg/kg/injection, schedule: Q01DX009 (ip), vehicle: saline",96 % of control
Nc1ccc2c(c1)[nH]c(=O)c1cc(Br)ccc12,T/C,"endpoint: mean survival time, dose: 100.0 mg/kg/injection, schedule: Q01DX001 (ip), vehicle: carboxymethylcellulose (CMC)",104 % of control
same,T/C,[1],100 % of control
same,T/C,"endpoint: mean survival time, dose: 400.0 mg/kg/injection, schedule: Q01DX001 (ip), vehicle: carboxymethylcellulose (CMC)",102 % of control
OC(C#Cc1ccccc1)c1ccccc1 (stereo not drawn),T/C,[2],105 % of control
same,T/C,[3],100 % of control
same,T/C,[4],95 % of control
same,T/C,[5],88 % of control and 89 % of control
same,T/C,"endpoint: mean survival time, dose: 200.0 mg/kg/injection, schedule: Q04DX003 (ip), vehicle: saline with Tween-80",101 % of control
same,T/C,"endpoint: mean survival time, dose: 400.0 mg/kg/injection, schedule: Q01DX009 (ip), vehicle: saline with Tween-80",98 % of control
O=[N+]([O-])c1cccc(C=Nc2cccc(Cl)c2)c1,T/C,"endpoint: mean survival time, dose: 100.0 mg/kg/injection, schedule: Q04DX002 (ip), vehicle: Klucel (hydroxypropylcellulose) (HPC)",96 % of control
same,T/C,"endpoint: mean survival time, dose: 200.0 mg/kg/injection, schedule: Q04DX002 (ip), vehicle: Klucel (hydroxypropylcellulose) (HPC)",100 % of control
same,T/C,"endpoint: mean survival time, dose: 400.0 mg/kg/injection, schedule: Q04DX002 (ip), vehicle: Klucel (hydroxypropylcellulose) (HPC)",100 % of control
O=C(O)C(CCO)c1ccccc1 (stereo not drawn),T/C,[6],95 % of control
same,T/C,[7],100 % of control
same,T/C,[8],95 % of control
COC(=O)C(Cc1ccc(N(CCCl)CCCl)cc1)N=NNc1nc[nH]c1C(N)=O (stereo not drawn),T/C,"endpoint: mean survival time, dose: 11.0 mg/kg/injection, schedule: Q03HX024 (ip), vehicle: other",150 % of control
same,T/C,"endpoint: mean survival time, dose: 17.0 mg/kg/injection, schedule: Q03HX024 (ip), vehicle: other",176 % of control
same,T/C,"endpoint: mean survival time, dose: 25.0 mg/kg/injection, schedule: Q03HX024 (ip), vehicle: other",157 % of control
same,T/C,"endpoint: mean survival time, dose: 38.0 mg/kg/injection, schedule: Q01DX009 (ip), vehicle: other",152 % of control
same,T/C,"endpoint: mean survival time, dose: 56.0 mg/kg/injection, schedule: Q01DX009 (ip), vehicle: other",114 % of control
same,T/C,"endpoint: mean survival time, dose: 88.0 mg/kg/injection, schedule: Q04DX003 (ip), vehicle: other",166 % of control
same,T/C,"endpoint: mean survival time, dose: 134.0 mg/kg/injection, schedule: Q04DX003 (ip), vehicle: other",160 % of control
same,T/C,[1],161 % of control
same,T/C,"endpoint: mean survival time, dose: 200.0 mg/kg/injection, schedule: Q04DX003 (ip), vehicle: other",103 % of control
same,T/C,"endpoint: mean survival time, dose: 300.0 mg/kg/injection, schedule: Q01DX001 (ip), vehicle: carboxymethylcellulose (CMC)",181 % of control
same,T/C,"endpoint: mean survival time, dose: 375.0 mg/kg/injection, schedule: Q01DX001 (ip), vehicle: carboxymethylcellulose (CMC)",151 % of control
same,T/C,"endpoint: median survival time, dose: 12.5 mg/kg/injection, schedule: Q01DX009 (ip), vehicle: steriod suspending solution",122 % of control
same,T/C,"endpoint: median survival time, dose: 50.0 mg/kg/injection, schedule: Q01DX009 (ip), vehicle: steriod suspending solution",105 % of control
same,T/C,"endpoint: median survival time, dose: 100.0 mg/kg/injection, schedule: Q01DX009 (ip), vehicle: steriod suspending solution",88 % of control
O=S(=O)(C(Cl)(Cl)Cl)C(Cl)(Cl)Cl,T/C,"endpoint: mean survival time, dose: 25.0 mg/kg/injection, schedule: Q01DX009 (ip), vehicle: Klucel (hydroxypropylcellulose) (HPC)",95 % of control
same,T/C,"endpoint: mean survival time, dose: 50.0 mg/kg/injection, schedule: Q01DX009 (ip), vehicle: Klucel (hydroxypropylcellulose) (HPC)",98 % of control
same,T/C,[9],93 % of control
CCC(C)(O)CCCC(C)C (stereo not drawn),T/C,[10],97 % of control
same,T/C,[11],100 % of control
same,T/C,"endpoint: mean survival time, dose: 400.0 mg/kg/injection, schedule: Q04DX003 (ip), vehicle: saline",92 % of control
CC(=O)OC(C(=O)O)C(OC(C)=O)C(=O)NCCO (stereo not drawn),T/C,"endpoint: mean survival time, dose: 100.0 mg/kg/injection, schedule: Q01DX001 (ip), vehicle: water",94 % of control
same,T/C,"endpoint: mean survival time, dose: 100.0 mg/kg/injection, schedule: Q04DX003 (ip), vehicle: water",87 % of control
same,T/C,"endpoint: mean survival time, dose: 200.0 mg/kg/injection, schedule: Q01DX001 (ip), vehicle: water",96 % of control
same,T/C,"endpoint: mean survival time, dose: 200.0 mg/kg/injection, schedule: Q04DX003 (ip), vehicle: water",95 % of control
same,T/C,"endpoint: mean survival time, dose: 400.0 mg/kg/injection, schedule: Q01DX001 (ip), vehicle: water",94 % of control
same,T/C,"endpoint: mean survival time, dose: 400.0 mg/kg/injection, schedule: Q04DX003 (ip), vehicle: water",97 % of control
CC(=O)NN=C(C)C,T/C,"endpoint: mean survival time, dose: 25.0 mg/kg/injection, schedule: Q01DX009 (ip), vehicle: saline",102 % of control
same,T/C,"endpoint: mean survival time, dose: 50.0 mg/kg/injection, schedule: Q01DX009 (ip), vehicle: saline",111 % of control
same,T/C,"endpoint: mean survival time, dose: 50.0 mg/kg/injection, schedule: Q04DX003 (ip), vehicle: saline",99 % of control
same,T/C,[10],99 % of control
same,T/C,[11],99 % of control
COc1ccc(C(=O)C/C(=N\N(C(=O)c2ccc(OC)cc2)c2ccccc2)c2ccc(OC)cc2)cc1,T/C,[2],100 % of control
same,T/C,[3],93 % of control
same,T/C,[5],98 % of control
CCc1ccc(NC(=O)Nc2ccc(Cl)cc2)cc1,T/C,"endpoint: mean survival time, dose: 100.0 mg/kg/injection, schedule: Q01DX009 (ip), vehicle: gum acacia",92 % of control
same,T/C,"endpoint: mean survival time, dose: 100.0 mg/kg/injection, schedule: Q04DX003 (ip), vehicle: gum acacia",92 % of control
same,T/C,"endpoint: mean survival time, dose: 200.0 mg/kg/injection, schedule: Q01DX009 (ip), vehicle: gum acacia",89 % of control
same,T/C,"endpoint: mean survival time, dose: 200.0 mg/kg/injection, schedule: Q04DX003 (ip), vehicle: gum acacia",92 % of control
same,T/C,"endpoint: mean survival time, dose: 400.0 mg/kg/injection, schedule: Q01DX009 (ip), vehicle: gum acacia",94 % of control
same,T/C,"endpoint: mean survival time, dose: 400.0 mg/kg/injection, schedule: Q04DX003 (ip), vehicle: gum acacia",93 % of control
O=C(NC(=S)Nc1ccc2c(c1)C(=O)c1ccccc1C2=O)c1cccc(Br)c1,T/C,[2],98 % of control
same,T/C,"endpoint: mean survival time, dose: 100.0 mg/kg/injection, schedule: Q01DX001 (ip), vehicle: saline with Tween-80",96 % of control
same,T/C,[3],98 % of control and 92 % of control
same,T/C,[6],96 % of control and 97 % of control
same,T/C,"endpoint: mean survival time, dose: 200.0 mg/kg/injection, schedule: Q01DX001 (ip), vehicle: saline with Tween-80",93 % of control
same,T/C,[5],97 % of control and 98 % of control
same,T/C,[7],94 % of control and 103 % of control
same,T/C,"endpoint: mean survival time, dose: 400.0 mg/kg/injection, schedule: Q01DX001 (ip), vehicle: saline with Tween-80",103 % of control
same,T/C,[8],96 % of control and 97 % of control
O=C(/C=C/c1ccccc1)N/N=C/c1ccncc1,T/C,"endpoint: mean survival time, dose: 100.0 mg/kg/injection, schedule: Q04DX002 (ip), vehicle: saline",91 % of control
same,T/C,"endpoint: mean survival time, dose: 200.0 mg/kg/injection, schedule: Q04DX002 (ip), vehicle: saline",108 % of control
same,T/C,"endpoint: mean survival time, dose: 400.0 mg/kg/injection, schedule: Q04DX002 (ip), vehicle: saline",112 % of control
C[N+](C)(C)CCOC(=O)CCC(=O)OCC[N+](C)(C)C,T/C,"endpoint: mean survival time, dose: 1.56 mg/kg/injection, schedule: Q01DX009 (ip), vehicle: saline",94 % of control
same,T/C,"endpoint: mean survival time, dose: 3.12 mg/kg/injection, schedule: Q01DX009 (ip), vehicle: saline",94 % of control
COc1cc(NC(=O)Nc2ccc(Cl)cc2[N+](=O)[O-])c(OC)cc1Cl,T/C,[9],94 % of control
same,T/C,"endpoint: mean survival time, dose: 200.0 mg/kg/injection, schedule: Q01DX009 (ip), vehicle: Klucel (hydroxypropylcellulose) (HPC)",94 % of control
same,T/C,"endpoint: mean survival time, dose: 400.0 mg/kg/injection, schedule: Q01DX009 (ip), vehicle: Klucel (hydroxypropylcellulose) (HPC)",89 % of control
CCCCOc1ccc(NC(=O)CCl)cc1,T/C,[4],89 % of control

# Reference: PubChem BioAssay AID248 (DTP/NCI, 2004)
